The subject of the experiment is tracheobronchial secretion in rats. As to the kind of experiment: Mucolytic activity in rats: tracheobronchial secretion of fluorescein sodium (FINa). Format: in vivo, rat (Swiss Albino Rats). The conditions noted are these: for Fluorescein Sodium (FINa) Secretion: dosed 30 minutes before i.v. FINa 300 mg/kg, tracheobronchial lavage one hour after administration, doses as Table 1, mean±SEM; for Percentage (%) Enhancement of FINa secretion compared to Normal: versus normal group (G1). The procedure: The effect of the compositions of the present invention was studied in animals. For this study, screening effect of synergistic combination of compositions/formulations comprising N-Acetyl-L-Cysteine, Lactoferrin and additional active ingredients for mucolytic activity in rat was performed. The following trials were carried out:
Eighty-Four (84) rats including male and female (Swiss Albino Rats) divided into 14 groups (6 per group) were maintained in animal house in a light/dark atmosphere based on a 12 hour cycle having temperature and relative humidity in the range of 19 to 25±2° C. and 30-70%, respectively. To maintain the appropriate conditions, temperature and relative humidity were recorded three times daily. All animals were acclimatized for a minimum period of five days. Animals were maintained in the test setup for minimum 30 minutes once during the acclimatization period to reduce the stress. Animals were weighed on the day of receipt and observed daily for abnormalities if any. Detailed records of acclimatization were also maintained. Rats were housed 3 per cage in clean, sterilized Polypropylene cages. During complete experiments, animals were supplied with the standard certified rat pellet feed and drinking water treated by reverse osmosis ad libitum.
In order to evaluate the mucolytic activity in rats, eighty-four (84) rats were screened and divided into Fourteen (14) groups. For a comparative analysis, groups were divided and treated as below:
Tracheobronchial secretion in rats, expressed by the amount of fluorescein sodium (FINa) dye excreted into the respiratory tract, was measured by modification of methods published earlier.
Lactoferrin, Carotenoid, N-Acetyl-L-Cysteine or their combinations (G4-G14) were suspended in 1% Acacia. Acetylcholine (G2) and Bromhexine (G3) were dissolved in distilled water. The said active ingredients were administered orally (1 ml/100 g body weight) 30 minutes before intravenous injection of FINa (300 mg/kg, 0.1 ml/100 g body weight) in fasted rats.
One hour after administration, all rats were sacrificed with CO2 exposure; an incision was made, and the trachea was immediately exposed. An infant feeding tube was gently inserted into the trachea (about 30 mm deep). Five milliliters of 5% NaHCO3 solution (˜37° C.) was injected into the respiratory tract and immediately aspirated while gently massaging the thoracic area.
The tracheobronchial lavage fluid (4.9±0.1 ml) was centrifuged (3500 rpm for 10 minutes) and the supernatant was transferred to STP B & L tubes. The fluorescence intensity of the supernatant was measured with a Genesys 20 spectrophotometer set at a wavelength of 510 nm (emission).

For `CC(=O)OCC[N+](C)(C)C` [Diseased Control, Acetylcholine], the “Fluorescein Sodium (FINa) Secretion” value is on record as 0.37 ± 0.12 μg/100 g/h. Also, the “Percentage (%) Enhancement of FINa secretion compared to Normal” value (shortened to “Percentage (%) Enhancement”) (doses as Table 1) is given as −74.13 ± 6.4 ^ %. In addition, where the note is “doses as Table 1, listed as diseased group”, the “Percentage (%) Enhancement” value was −74.13%.
`CC(=O)N[C@@H](CS)C(=O)O` [NAC, N-Acetyl-L-Cysteine]: the “Fluorescein Sodium (FINa) Secretion” value stood at 1.99 ± 0.08 μg/100 g/h. Where the note is “doses as Table 1”, the “Percentage (%) Enhancement” value was found to be 39.16 ± 5.1%. Besides, the “Percentage (%) Enhancement” value (doses as Table 1, listed as N-Acetyl-L-Cysteine) came out at 39.16%.
As for `CN(Cc1cc(Br)cc(Br)c1N)C1CCCCC1` [Positive Control, Bromhexine], the “Fluorescein Sodium (FINa) Secretion” value came to 2.64 ± 0.18 μg/100 g/h. In addition, the “Percentage (%) Enhancement” value (doses as Table 1) amounted to 84.62 ± 6.1%. The “Percentage (%) Enhancement” value (doses as Table 1, listed as positive control) came to 84.62%.

(Values after patent publication US12508302B2, “Pharmaceutical composition providing mucolytic effect” (FRIMLINE PRIVATE LIMITED, priority 2022, dated 2025).)
